Columns and labels:
Assay in all cases: Growth inhibition assay
[1] = system: F. nucleatum subsp. nucleatum ATCC 25586 (FNN25); format: cell-based, Fusobacterium nucleatum subsp. nucleatum ATCC 25586; conditions: 10 µM, MHB, 1 × 10^5 CFU/mL input, three replicates
From the text: (§1) The following fusobacterial strains were used in this study: Fusobacterium nucleatum subsp. nucleatum ATCC 23726 (FNN23) acquired from the American Type Culture Collection (ATCC), F. nucleatum subsp. nucleatum ATCC 25586 (FNN25), F. nucleatum subsp. vincentii ATCC 49256 (FNV), and F. nucleatum subsp. polymorphum ATCC 10953 (FNP) acquired from the German Collection of Microorganisms and Cell Culture (DSMZ), F. nucleatum subsp. animalis 7_1 (FNA) and F. periodonticum 2_1_31 (FPE) both received as a kind gift from E. Allen-Vercoe (University of Guelph, Canada). All strains were routinely grown at 37°C in 80:10:10 (N2:H2:CO2) anaerobic conditions on 2% agar supplemented BHI plates (BHI, 1% [wt:vol] dried yeast extract, 1% [vol:vol] 50% sterile-filtered glucose solution, 5 µg/mL of hemin; 1% [vol:vol] fetal bovine serum) from frozen 20% glycerol stocks kept at −80°C. For liquid growth, the strains were cultured in Columbia broth (ColB; BD Difco). Precultures were prepared 24 h before inoculating the working culture at a 1:50 dilution in fresh ColB until OD600 0.5 was reached. Cultures were then diluted in non-cation adjusted Mueller-Hinton Broth (MHB, BD Difco) to the desired CFU/mL number. P. gingivalis (DSM 20709) was purchased from DSMZ and grown at 37°C in anaerobic conditions as mentioned above on 2% agar supplemented BHI+ plates (BHI, 1% [wt:vol] dried yeast extract, 1% [vol:vol] 50% sterile filtered glucose solution, 5 µg/ml of hemin; 10% [vol:vol] fetal bovine serum; and 1 µg/mL vitamin K3) for 4 days. […]
(§2) To determine the MIC value, broth microdilutions were performed according to the standard protocol with some modifications ([119]). […] Bacterial growth was monitored by measuring OD600 every 20 min with constant shaking in a plate reader (Biotek) under the normal atmospheric environment or positioned in the anaerobic chamber with double orbital shaking every 20 min prior to each measurement with 237 cpm at 37°C for 120 h.

[2] = system: P. gingivalis (DSM 20709); format: cell-based, Porphyromonas gingivalis; conditions: 10 µM, MHB, 1 × 10^5 CFU/mL input, anaerobic, OD600 for 144 h
From the text: as §1, with “reached.” for “reached. Cultures were then diluted in non-cation adjusted Mueller-Hinton Broth (MHB, BD Difco) to the desired CFU/mL number. P. gingivalis (DSM 20709) was purchased from DSMZ and grown at 37°C in anaerobic conditions as mentioned above on 2% agar supplemented BHI+ plates (BHI, 1% [wt:vol] dried yeast extract, 1% [vol:vol] 50% sterile filtered glucose solution, 5 µg/ml of hemin; 10% [vol:vol] fetal bovine serum; and 1 µg/mL vitamin K3) for 4 days.”
To determine the MIC value, broth microdilutions were performed according to the standard protocol with some modifications ([119]). […] […] a plate reader (Biotek) under the normal atmospheric environment or positioned in the anaerobic chamber with double orbital […]

[3] = system: F. nucleatum subsp. vincentii ATCC 49256 (FNV); format: cell-based, Fusobacterium nucleatum subsp. vincentii ATCC 49256; conditions: 10 µM, MHB, 1 × 10^5 CFU/mL input, three replicates
From the text: The following fusobacterial strains were used in this study: Fusobacterium nucleatum subsp. nucleatum ATCC 23726 (FNN23) acquired from the American Type Culture Collection (ATCC), F. nucleatum subsp. nucleatum ATCC 25586 (FNN25), F. nucleatum subsp. vincentii ATCC 49256 (FNV), and F. nucleatum subsp. polymorphum ATCC 10953 (FNP) acquired from the German Collection of Microorganisms and Cell Culture (DSMZ), F. nucleatum subsp. animalis 7_1 (FNA) and F. periodonticum 2_1_31 (FPE) both received as a kind gift from E. Allen-Vercoe (University of Guelph, Canada). All strains were routinely grown at 37°C in 80:10:10 (N2:H2:CO2) anaerobic conditions on 2% agar supplemented BHI plates (BHI, 1% [wt:vol] dried yeast extract, 1% [vol:vol] 50% sterile-filtered glucose solution, 5 µg/mL of hemin; 1% [vol:vol] fetal bovine serum) from frozen 20% glycerol stocks kept at −80°C. For liquid growth, the strains were cultured in Columbia broth (ColB; BD Difco). […]
as §2

[4] = system: F. nucleatum subsp. animalis 7_1 (FNA); format: cell-based, Fusobacterium nucleatum subsp. animalis 7_1; conditions: 10 µM, MHB, 1 × 10^5 CFU/mL input, three replicates
From the text: as §1, §2

[5] = system: F. nucleatum subsp. polymorphum ATCC 10953 (FNP); format: cell-based, Fusobacterium nucleatum subsp. polymorphum ATCC 10953; conditions: 10 µM, MHB, 1 × 10^5 CFU/mL input, three replicates
From the text: as §1, §2

E. coli Nissle 1917 = format: cell-based, Escherichia coli Nissle 1917; conditions: 10 µM, MHB, 1 × 10^5 CFU/mL input, aerobic, 24 h
Description: Aerobic bacterial culture was conducted with E. coli K12 MG1655 (provided by D. Lee), E. coli Nissle 1917, and S. enterica serovar Typhimurium SL1344 (provided by D. Bumann, Biocenter Basel, Switzerland). The strains were streaked on lysogeny broth plates, incubated o.n. at 37°C and cultured in non-cation-adjusted MHB with aeration at 37°C and 220 rpm constant shaking.
To determine the MIC value, broth microdilutions were performed according to the standard protocol with some modifications ([119]). An overnight bacterial culture was diluted in a fresh ColB medium and grown to OD600 0.5 (mid-exponential phase). Fusobacteria were then diluted 1:2,500 or 1:250 in fresh MHB to obtain 1 × 10^5 CFU/mL or 1 × 10^6 CFU/mL as indicated. To determine the growth inhibition of P. gingivalis, an o.n. culture grown in BHI+ was diluted 1:1,500 in MHB to obtain 1 × 10^5 CFU/mL. E. coli K12, E. coli Nissle 1917, and S. enterica o.n. cultures grown in MHB were diluted 1:1,800 in fresh MHB to obtain 1 × 10^5 CFU/mL. […] Bacterial growth was monitored by measuring OD600 every 20 min with constant shaking in a plate reader (Biotek) under the normal atmospheric environment or positioned in the anaerobic chamber with double orbital shaking every 20 min prior to each measurement with 237 cpm at 37°C for 120 h.

[6] = system: F. periodonticum 2_1_31 (FPE); format: cell-based, Fusobacterium periodonticum 2_1_31; conditions: 10 µM, MHB, 1 × 10^5 CFU/mL input, three replicates
From the text: as §1, §2

Substance	Growth inhibition of FNN25 [1]	Growth inhibition of P. gingivalis [2]	Growth inhibition of FNV [3]	Growth inhibition of FNA [4]	Growth inhibition of FNP [5]	Growth inhibition of E. coli Nissle 1917 (E. coli Nissle 1917)	Growth inhibition of FPE [6]
(RXR)4XB-GACATAATTGT [FUS79, non-targeting (RXR)4XB-PNA 11-mer control, (RXR)4XB-…]	inhibited the growth	no growth inhibition	inhibited the growth of all strains, except FNV	inhibited the growth	inhibited the growth	no growth inhibition	inhibited the growth
RXRRXRRXRRXRXB [PNAscr]	growth retardation compared with the water control	no growth inhibition	growth retardation compared with the water control	growth retardation compared with the water control	growth retardation compared with the water control	no growth inhibition	growth retardation compared with the water control

Source: publication PMC12153356, “An antisense oligomer conjugate with unpredicted bactericidal activity against Fusobacterium nucleatum” (mBio, 2025)
